Measured values published in patent publication US10563244B2, “Nanopatterned extracellular matrices enable cell-based assays with a mass spectrometric readout” (NORTHWESTERN UNIVERSITY, priority 2016, dated 2020).

Tested on: cellular phosphatases (phosphotyrosine phosphatases) in HeLa cells
Assay: TCAL-SAMDI cell-based phosphatase activity assay (HeLa cells on fibronectin nanoarrays, lysis, SAMDI-MS readout)
Method: Cell-Based Assay for Enzyme Activity. HeLa cells were obtained from ATCC and cultured in DMEM medium supplemented with fetal bovine serum, glutamine, penicillin and streptomycin. All cells were cultured in a humidified incubator at 37° C. and 5% CO2. Cells were trypsinized and suspended in media, and the average number of cells per μL was estimated using a hemocytometer to seed the desired number of cells per spot. The volume of media per spot was 3 μL for all experiments. Cells were cultured on the monolayers presenting fibronectin and the phosphatase peptide substrate on glass slides for 2 hours under standard growth conditions. Lysis buffer (1 μL) was delivered manually to each spot and the lysate was allowed to react with the monolayer for 1 hour at 37° C. in a humidity chamber. […] A solution of 2,4,6-trihydroxyacetopehenone (THAP) in acetone (30 mg/mL) was delivered to each spot on the array and the surfaces were analyzed using an Applied Biosystems 5800 MALDI TOF/TOF instrument with a 20 kV accelerating voltage in positive reflector mode. […]
HeLa cells were seeded on the fibronectin nanopatterned surfaces and cultured the cells for two hours under standard media conditions (FIG. 4A). […] The mixed monolayer was rinsed with PBS buffer and then treated with 2,4,6-trihydroxyacetophenone (THAP) matrix (30 mg/mL in acetone) and analyzed with SAMDI-MS. […]

O=C(CBr)c1ccc(O)cc1 [PTPI-I, PTP Inhibitor I]
decrease in phosphatase activity (HeLa cells, 300 μM added to cell cultures, two hour culture period, then lysis and SAMDI-MS): 92%
phosphatase activity after addition of inhibitor (SAMDI spectra, FIG. 4C) (figure legend says inhibitor added to the lysis buffer, HeLa cells on patterned monolayers): loss of phosphatase activity
